Target: T1, CYP4A (Homo sapiens, UniProt Q02928)
T1 construct: host or cells: bactosome, i.e. bacterial membrane preparation (own knowledge of the term)
T1 sequence (Q02928 5-519): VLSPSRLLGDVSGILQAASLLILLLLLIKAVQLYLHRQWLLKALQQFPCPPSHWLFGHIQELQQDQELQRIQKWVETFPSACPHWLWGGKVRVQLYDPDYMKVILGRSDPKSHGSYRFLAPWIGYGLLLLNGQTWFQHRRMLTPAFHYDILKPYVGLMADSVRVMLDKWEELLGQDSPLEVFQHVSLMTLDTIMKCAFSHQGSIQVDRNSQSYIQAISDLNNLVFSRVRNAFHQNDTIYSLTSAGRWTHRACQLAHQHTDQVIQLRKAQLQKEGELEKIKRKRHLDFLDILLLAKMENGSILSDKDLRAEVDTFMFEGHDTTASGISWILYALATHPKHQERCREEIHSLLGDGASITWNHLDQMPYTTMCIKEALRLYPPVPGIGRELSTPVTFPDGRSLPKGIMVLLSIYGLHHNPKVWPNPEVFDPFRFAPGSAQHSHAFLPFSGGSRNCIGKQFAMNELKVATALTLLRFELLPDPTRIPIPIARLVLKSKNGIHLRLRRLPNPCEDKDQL
Assay: CYP4A enzyme assay (Luciferin-ME luminescence, CYP4A bactosome)
Type: biochemical
Details: compound concentration 5 μM; 25%-50%; read-out: % Inhibition 25%-50%
Procedure: A commercially available reagent was used for the reagent used in the experiment, and it was manufactured and used if necessary. The device used for activity measurement was EnVision of PerkinElmer or SpectraMax of MOLECULAR DEVICES.
First, CYP4A bactosome and synthetic compound (5 μM) were mixed in assay buffer (100 mM KPO4, 0.1% BSA, 1 mM DTT) in a 384-well plate (white opaque ploystyrene nontreated flat-bottom well), and then reacted at room temperature for 15 minutes. After adding 5 mM Luciferin-ME and NADPH Regeneration system (10× sol.A, 20× sol.B in assay buffer, Cat. Number: V865B, Promega), leave it at room temperature for 30 minutes to allow the CYP4A reaction to occur sufficiently, by adding the Luciferin Detection reagent, the CYP4A reaction was finished, luminescence reaction was induced, and the reaction was carried out at room temperature for 15 minutes. The degree of inhibition of CYP4A activity was measured by comparing the luminescence values from each well with a microplate reader.

Row | Structure (SMILES) | inhibition at 5 µM
1 | O=C(C1CCCN(S(=O)(=O)c2ccc(O)cc2)C1)N1CCN(c2cc(C(F)(F)F)nc3ccccc23)CC1 (centres unmarked) [Formula 68, (1-(4-hydroxyphenylsulfonyl)piperidin-3-yl) (4-(2-(trifluoromethyl)quinolin-4-yl)piperazin-1-yl) methanone] | 25 to 50%
2 | Cc1cccc(S(=O)(=O)N2CCCC(C(=O)N3CCN(c4cc(C)nc5ccccc45)CC3)C2)c1 (centres unmarked) [Formula 21, (4-(2-methylquinolin-4-yl)piperazin-1-yl) (1-(m-tolylsulfonyl)piperidin-3-yl) methanone] | 25 to 50%
3 | Cc1cc(N2CCN(C(=O)C3CCCN(S(=O)(=O)c4ccc(C)c(C)c4)C3)CC2)c2ccccc2n1 (centres unmarked) [Formula 22, (1-((3,4-dimethylphenyl)sulfonyl)piperidin-3-yl) (4-(2-methylquinolin-4-yl)piperazin-1-yl) methanone] | 25 to 50%
4 | Cc1ccc(S(=O)(=O)N2CCCC(C(=O)N3CCN(c4cc(C(F)(F)F)nc5ccccc45)CC3)C2)cc1 (centres unmarked) [Formula 65, (1-tosylpiperidin-3-yl) (4-(2-(trifluoromethyl)quinolin-4-yl)piperazin-1-yl) methanone] | 25 to 50%
5 | COc1ccc2c(N3CCN(C(=O)C4CCCN(S(=O)(=O)c5ccc(C)cc5)C4)CC3)ccnc2c1 (centres unmarked) [Formula 88, (4-(7-methoxyquinolin-4-yl)piperazin-1-yl) (1-tosylpiperidin-3-yl) methanone] | 0%
6 | Cc1cc(N2CCN(C(=O)C3CCCN(S(=O)(=O)c4ccc(N)cc4)C3)CC2)c2ccccc2n1 (centres unmarked) [Formula 96, (1-(4-aminophenylsulfonyl)piperidin-3-yl) (4-(2-methylquinolin-4-yl)piperazin-1-yl) methanone] | 25 to 50%

Same assay, conditions: compound concentration 5 μM; 75% or more; read-out: % Inhibition 75% or more

Row | Structure (SMILES) | inhibition at 5 µM
7 | O=C(C1CCCN(S(=O)(=O)c2cccc(O)c2)C1)N1CCN(c2ccnc3ccccc23)CC1 (centres unmarked) [Formula 95, (1-(3-hydroxyphenylsulfonyl)piperidin-3-yl) (4-(quinolin-4-yl)piperazin-1-yl) methanone] | ≥ 75%
8 | N#Cc1ccc(S(=O)(=O)N2CCCC(C(=O)N3CCN(c4ccnc5cc(Cl)ccc45)CC3)C2)cc1 (centres unmarked) [Formula 10, 4-(3-(1-(7-chloroquinolin-4-yl)piperazine-4-carbonyl)piperidin-1-ylsulfonyl)benzonitrile] | ≥ 75%
9 | CC(=O)Nc1ccc(S(=O)(=O)N2CCC[C@@H](C(=O)N3CCN(c4ccnc5cc(F)ccc45)CC3)C2)cc1 [Formula 46, (R)—N-(4-(3-(1-(7-fluoroquinolin-4-yl)piperazine-4-carbonyl)piperidin-1-ylsulfonyl)phenyl) acetamide] | ≥ 75%
10 | CN(C)c1ccc(S(=O)(=O)N2CCC[C@H](C(=O)N3CCN(c4ccnc5cc(F)ccc45)CC3)C2)cc1 | ≥ 75%
11 | CCCCc1ccc(N=CNO)c(C)c1 [HET-0016, N-hydroxy-N′-(4-butyl-2-methylphenyl)-formamidine, reference compound] | ≥ 75%
12 | O=C(C1CCCN(S(=O)(=O)c2ccc([N+](=O)[O-])cc2)C1)N1CCN(c2ccnc3cc(F)ccc23)CC1 (centres unmarked) [Formula 50, (4-(7-fluoroquinolin-4-yl)piperazin-1-yl) (1-(4-nitrophenylsulfonyl)piperidin-3-yl) methanone] | ≥ 75%
13 | O=C(C1CCCN(S(=O)(=O)c2ccc(Br)cc2)C1)N1CCN(c2ccnc3cc(F)ccc23)CC1 (centres unmarked) [Formula 56, (1-(4-bromophenylsulfonyl)piperidin-3-yl) (4-(7-fluoroquinolin-4-yl)piperazin-1-yl)methanone] | ≥ 75%
14 | CN(C)c1ccc(S(=O)(=O)N2CCCC(C(=O)N3CCN(c4ccnc5ccccc45)CC3)C2)cc1 (centres unmarked) [Formula 77, (1-(4-(dimethylamino)phenylsulfonyl)piperidin-3-yl) (4-(quinolin-4-yl)piperazin-1-yl) methanone] | ≥ 75%
15 | CC(=O)Nc1ccc(S(=O)(=O)N2CCCC(C(=O)N3CCN(c4cc(C)nc5ccccc45)CC3)C2)cc1 (centres unmarked) [Formula 15, N-(4-(3-(1-(2-methylquinolin-4-yl)piperazine-4-carbonyl)piperidin-1-ylsulfonyl)phenyl) acetamide] | ≥ 75%
16 | O=C(C1CCCN(S(=O)(=O)c2ccc(O)cc2)C1)N1CCN(c2ccnc3ccccc23)CC1 (centres unmarked) [Formula 76, (1-((4-hydroxyphenyl)sulfonyl)piperidin-3-yl) (4-(quinolin-4-yl)piperazin-1-yl) methanone] | ≥ 75%

Same assay, conditions: compound concentration 5 μM; '50%-75%'; read-out: % Inhibition 50%-75%

Row | Structure (SMILES) | inhibition at 5 µM
17 | Cc1cc(N2CCN(C(=O)C3CCCN(S(=O)(=O)c4ccc(C(F)(F)F)cc4)C3)CC2)c2ccccc2n1 (centres unmarked) [Formula 26, (4-(2-methylquinolin-4-yl)piperazin-1-yl) (1-(4-(trifluoromethyl)phenylsulfonyl)piperidin-3-yl) methanone] | 50 to 75%
18 | O=C(C1CCCN(S(=O)(=O)c2cccc(F)c2)C1)N1CCN(c2ccnc3cc(Cl)ccc23)CC1 (centres unmarked) [Formula 8, (4-(7-chloroquinolin-4-yl)piperazin-1-yl) (1-((3-fluorophenyl)sulfonyl)piperidin-3-yl) methanone] | 50 to 75%
19 | O=C(C1CCCN(S(=O)(=O)c2cccc(O)c2)C1)N1CCN(c2ccnc3cc(Cl)ccc23)CC1 (centres unmarked) [Formula 92, (4-(7-chloroquinolin-4-yl)piperazin-1-yl) (1-(3-hydroxyphenylsulfonyl)piperidin-3-yl) methanone] | 50 to 75%
20 | Cc1cc(N2CCN(C(=O)C3CCCN(S(=O)(=O)c4cccc(F)c4)C3)CC2)c2ccccc2n1 (centres unmarked) [Formula 27, (1-(3-fluorophenylsulfonyl)piperidin-3-yl) (4-(2-methylquinolin-4-yl)piperazin-1-yl) methanone] | 50 to 75%
21 | Cc1ccc(S(=O)(=O)N2CCCC(C(=O)N3CCN(c4ccnc5cc(Cl)ccc45)CC3)C2)cc1 (centres unmarked) [Formula 2, (4-(7-chloroquinolin-4-yl)piperazin-1-yl) (1-tosylpiperidin-3-yl) methanone] | 50 to 75%
22 | O=C(C1CCCN(S(=O)(=O)c2ccc(F)cc2)C1)N1CCN(c2ccnc3cc(Cl)ccc23)CC1 (centres unmarked) [Formula 3, (4-(7-chloroquinolin-4-yl)piperazin-1-yl) (1-((4-fluorophenyl)sulfonyl)piperidin-3-yl) methanone] | 50 to 75%
23 | O=C(C1CCCN(S(=O)(=O)c2ccccc2)C1)N1CCN(c2ccnc3ccccc23)CC1 (centres unmarked) [Formula 74, (1-(phenylsulfonyl)piperidin-3-yl) (4-(quinolin-4-yl)piperazin-1-yl) methanone] | 50 to 75%
24 | O=C(C1CCCN(S(=O)(=O)c2ccccc2)C1)N1CCN(c2ccnc3cc(Cl)ccc23)CC1 (centres unmarked) [Formula 1, (4-(7-chloroquinolin-4-yl)piperazin-1-yl) (1-(phenylsulfonyl)piperidin-3-yl) methanone] | 50 to 75%
25 | Cc1cc(N2CCN(C(=O)C3CCCN(S(=O)(=O)c4ccc(F)cc4)C3)CC2)c2ccccc2n1 (centres unmarked) [Formula 24, (1-((4-fluorophenyl)sulfonyl)piperidin-3-yl) (4-(2-methylquinolin-4-yl)piperazin-1-yl) methanone] | 50 to 75%

Same assay, conditions: compound concentration 5 μM; mark in column '25% or less'; read-out: % Inhibition 25% or less

Row | Structure (SMILES) | inhibition at 5 µM
26 | O=C(C1CCCN(S(=O)(=O)c2ccccc2)C1)N1CCN(c2cc(C(F)(F)F)nc3ccccc23)CC1 (centres unmarked) [Formula 64, (1-(phenylsulfonyl)piperidin-3-yl) (4-(2-(trifluoromethyl)quinolin-4-yl)piperazin-1-yl)methanone] | ≤ 25%

Reference: patent publication US12479821B2 (MBD CO., LTD., priority 2019, dated 2025)
